Test system: human myeloma cell line MM.1S
Test: Biological pathway analysis of SILAC biomarker peptides against pathway database (broadinstitute gsea)
Procedure: Once biomarker peptides are identified for a specific drug by the SILAC method, the biomarker peptides may be compared to peptides/proteins in a biological pathway database in order to identify major biological pathways or functions implicated by the drug's action. A preferred pathway analysis website is at www dot broadinstitute dot org/gsea/index dot jsp.
This example describes the biological pathway analysis that was performed on each of Compound A, Compound B, and Tubastatin A.
Once biomarker peptides were identified for a specific drug (either Compound A, Compound B, or Tubastatin A) by the SILAC method in Example 1, the biomarker peptides were compared to peptides/proteins in the biological pathway database at www dot broadinstitute dot org/gsea/index dot jsp in order to identify major biological pathways or functions implicated by the drug's action.

In the case of `O=C(NO)c1cnc(NC2(c3cccc(F)c3)CCCCC2)nc1` [Compound B, 2-((1-(3-fluorophenyl)cyclohexyl)amino)-N-hydroxypyrimidine-5-carboxamide], the “Observed: number of genes in pathway REACTOME_PACKAGING_OF_TELOMERE_ENDS” value (Pathway_size 48) is reported as 15, the “Ratio observed/pathway size, REACTOME_PACKAGING_OF_TELOMERE_ENDS” value (Pathway_size 48) is reported as 0.3125 and the “Observed: number of genes in pathway REACTOME_RNA_POL_I_PROMOTER_OPENING” value (Pathway_size 61) is reported as 15. The “Ratio observed/pathway size, REACTOME_RNA_POL_I_PROMOTER_OPENING” value (Pathway_size 61) was 0.2459, the “Observed: number of genes in pathway REACTOME_DEPOSITION_OF_NEW_CENPA_CONTAINING_NUCLEOSOMES_AT_THE_CENTROMERE” value (Pathway_size 64) was 15 and the “Ratio observed/pathway size, REACTOME_DEPOSITION_OF_NEW_CENPA_CONTAINING_NUCLEOSOMES_AT_THE_CENTROMERE” value (Pathway_size 64) was 0.2344. The “Observed: number of genes in pathway REACTOME_MEIOTIC_SYNAPSIS” value (Pathway_size 71) was 16, the “Ratio observed/pathway size, REACTOME_MEIOTIC_SYNAPSIS” value (Pathway_size 71) was 0.2254 and the “Observed: number of genes in pathway MORF_PPP2CA” value (Pathway_size 127) was 18. The “Ratio observed/pathway size, MORF_PPP2CA” value (Pathway_size 127) was 0.1417, the “Observed: number of genes in pathway MORF_NME2” value (Pathway_size 154) was 19 and the “Ratio observed/pathway size, MORF_NME2” value (Pathway_size 154) was 0.1234. The “Observed: number of genes in pathway MORF_NPM1” value (Pathway_size 162) was 20, the “Ratio observed/pathway size, MORF_NPM1” value (Pathway_size 162) was 0.1235 and the “Observed: number of genes in pathway MORF_CTBP1” value (Pathway_size 168) was 24. For the same compound, the “Ratio observed/pathway size, MORF_CTBP1” value (Pathway_size 168) was 0.1429, the “Observed: number of genes in pathway MORF_G22P1” value (Pathway_size 171) was 23 and the “Ratio observed/pathway size, MORF_G22P1” value (Pathway_size 171) was 0.1345. The “Observed: number of genes in pathway MORF_RAD21” value (Pathway_size 182) was 20, the “Ratio observed/pathway size, MORF_RAD21” value (Pathway_size 182) was 0.1099 and the “Observed: number of genes in pathway PENG_LEUCINE_DEPRIVATION_DN” value (Pathway_size 187) was 21. The “Ratio observed/pathway size, PENG_LEUCINE_DEPRIVATION_DN” value (Pathway_size 187) was 0.1123, the “Observed: number of genes in pathway MORF_DAP3” value (Pathway_size 193) was 21 and the “Ratio observed/pathway size, MORF_DAP3” value (Pathway_size 193) was 0.1088. The “Observed: number of genes in pathway MORF_ANP32B” value (Pathway_size 197) was 27, the “Ratio observed/pathway size, MORF_ANP32B” value (Pathway_size 197) was 0.1371 and the “Observed: number of genes in pathway MORF_SKP1A” value (Pathway_size 202) was 22. The “Ratio observed/pathway size, MORF_SKP1A” value (Pathway_size 202) was 0.1089, the “Observed: number of genes in pathway MORF_AATF” value (Pathway_size 205) was 22 and the “Ratio observed/pathway size, MORF_AATF” value (Pathway_size 205) was 0.1073. The “Observed: number of genes in pathway MORF_ACP1” value (Pathway_size 210) was 22, the “Ratio observed/pathway size, MORF_ACP1” value (Pathway_size 210) was 0.1048 and the “Observed: number of genes in pathway MORF_XRCC5” value (Pathway_size 234) was 26. For the same compound, the “Ratio observed/pathway size, MORF_XRCC5” value (Pathway_size 234) was 0.1111, the “Observed: number of genes in pathway MORF_UBE2I” value (Pathway_size 238) was 31 and the “Ratio observed/pathway size, MORF_UBE2I” value (Pathway_size 238) was 0.1303. For the same compound, the “Observed: number of genes in pathway MORF_EIF3S2” value (Pathway_size 244) was 25, the “Ratio observed/pathway size, MORF_EIF3S2” value (Pathway_size 244) was 0.1025 and the “Observed: number of genes in pathway MORF_HDAC1” value (Pathway_size 254) was 30. The “Ratio observed/pathway size, MORF_HDAC1” value (Pathway_size 254) was 0.1181, the “Observed: number of genes in pathway MORF_DEK” value (Pathway_size 262) was 29 and the “Ratio observed/pathway size, MORF_DEK” value (Pathway_size 262) was 0.1107. The “Observed: number of genes in pathway MORF_RAN” value (Pathway_size 268) was 33, the “Ratio observed/pathway size, MORF_RAN” value (Pathway_size 268) was 0.1231 and the “Observed: number of genes in pathway MORF_BUB3” value (Pathway_size 276) was 27. The “Ratio observed/pathway size, MORF_BUB3” value (Pathway_size 276) was 0.09783, the “Observed: number of genes in pathway MORF_SOD1” value (Pathway_size 277) was 23 and the “Ratio observed/pathway size, MORF_SOD1” value (Pathway_size 277) was 0.08303. For the same compound, the “Observed: number of genes in pathway MORF_CSNK2B” value (Pathway_size 287) was 27, the “Ratio observed/pathway size, MORF_CSNK2B” value (Pathway_size 287) was 0.09408 and the “Observed: number of genes in pathway MORF_GNB1” value (Pathway_size 303) was 30. The “Ratio observed/pathway size, MORF_GNB1” value (Pathway_size 303) was 0.09901, the “Observed: number of genes in pathway PENG_GLUTAMINE_DEPRIVATION_DN” value (Pathway_size 337) was 25 and the “Ratio observed/pathway size, PENG_GLUTAMINE_DEPRIVATION_DN” value (Pathway_size 337) was 0.07418. For the same compound, the “Observed: number of genes in pathway MORF_RAD23A” value (Pathway_size 345) was 34, the “Ratio observed/pathway size, MORF_RAD23A” value (Pathway_size 345) was 0.09855 and the “Observed: number of genes in pathway HSIAO_HOUSEKEEPING_GENES” value (Pathway_size 389) was 36. The “Ratio observed/pathway size, HSIAO_HOUSEKEEPING_GENES” value (Pathway_size 389) was 0.09255, the “Observed: number of genes in pathway REACTOME_CELL_CYCLE” value (Pathway_size 412) was 29 and the “Ratio observed/pathway size, REACTOME_CELL_CYCLE” value (Pathway_size 412) was 0.07039. For the same compound, the “Observed: number of genes in pathway CASORELLI_ACUTE_PROMYELOCYTIC_LEUKEMIA_DN” value (Pathway_size 662) was 31, the “Ratio observed/pathway size, CASORELLI_ACUTE_PROMYELOCYTIC_LEUKEMIA_DN” value (Pathway_size 662) was 0.04683 and the “Observed: number of genes in pathway KIM_BIPOLAR_DISORDER_OLIGODENDROCYTE_DENSITY_CORR_UP” value (Pathway_size 681) was 31. The “Ratio observed/pathway size, KIM_BIPOLAR_DISORDER_OLIGODENDROCYTE_DENSITY_CORR_UP” value (Pathway_size 681) was 0.04552, the “Observed: number of genes in pathway BENPORATH_MYC_MAX_TARGETS” value (Pathway_size 775) was 35 and the “Ratio observed/pathway size, BENPORATH_MYC_MAX_TARGETS” value (Pathway_size 775) was 0.04516. The “Observed: number of genes in pathway PUJANA_CHEK2_PCC_NETWORK” value (Pathway_size 778) was 39, the “Ratio observed/pathway size, PUJANA_CHEK2_PCC_NETWORK” value (Pathway_size 778) was 0.05013 and the “Observed: number of genes in pathway GRADE_COLON_CANCER_UP” value (Pathway_size 870) was 40. The “Ratio observed/pathway size, GRADE_COLON_CANCER_UP” value (Pathway_size 870) was 0.04598, the “Observed: number of genes in pathway MACROMOLECULAR_COMPLEX” value (Pathway_size 945) was 34 and the “Ratio observed/pathway size, MACROMOLECULAR_COMPLEX” value (Pathway_size 945) was 0.03598. For the same compound, the “Observed: number of genes in pathway LOPEZ_MBD_TARGETS” value (Pathway_size 957) was 37, the “Ratio observed/pathway size, LOPEZ_MBD_TARGETS” value (Pathway_size 957) was 0.03866 and the “Observed: number of genes in pathway DANG_BOUND_BY_MYC” value (Pathway_size 1102) was 46. For the same compound, the “Ratio observed/pathway size, DANG_BOUND_BY_MYC” value (Pathway_size 1102) was 0.04174, the “Observed: number of genes in pathway INTRACELLULAR_ORGANELLE_PART” value (Pathway_size 1192) was 47 and the “Ratio observed/pathway size, INTRACELLULAR_ORGANELLE_PART” value (Pathway_size 1192) was 0.03943. For the same compound, the “Observed: number of genes in pathway ORGANELLE_PART” value (Pathway_size 1197) was 47, the “Ratio observed/pathway size, ORGANELLE_PART” value (Pathway_size 1197) was 0.03927 and the “Observed: number of genes in pathway BLALOCK_ALZHEIMERS_DISEASE_DN” value (Pathway_size 1237) was 49. The “Ratio observed/pathway size, BLALOCK_ALZHEIMERS_DISEASE_DN” value (Pathway_size 1237) was 0.03961, the “Observed: number of genes in pathway DODD_NASOPHARYNGEAL_CARCINOMA_DN” value (Pathway_size 1368) was 39 and the “Ratio observed/pathway size, DODD_NASOPHARYNGEAL_CARCINOMA_DN” value (Pathway_size 1368) was 0.02851. For the same compound, the “Observed: number of genes in pathway DIAZ_CHRONIC_MEYLOGENOUS_LEUKEMIA_UP” value (Pathway_size 1382) was 58, the “Ratio observed/pathway size, DIAZ_CHRONIC_MEYLOGENOUS_LEUKEMIA_UP” value (Pathway_size 1382) was 0.04197 and the “Observed: number of genes in pathway NUCLEUS” value (Pathway_size 1428) was 40. The “Ratio observed/pathway size, NUCLEUS” value (Pathway_size 1428) was 0.02801, the “Observed: number of genes in pathway PUJANA_ATM_PCC_NETWORK” value (Pathway_size 1440) was 41 and the “Ratio observed/pathway size, PUJANA_ATM_PCC_NETWORK” value (Pathway_size 1440) was 0.02847. For the same compound, the “Observed: number of genes in pathway PUJANA_BRCA1_PCC_NETWORK” value (Pathway_size 1651) was 68, the “Ratio observed/pathway size, PUJANA_BRCA1_PCC_NETWORK” value (Pathway_size 1651) was 0.04119 and the “Observed: number of genes in pathway GRAESSMANN_APOPTOSIS_BY_DOXORUBICIN_DN” value (Pathway_size 1781) was 44. The “Ratio observed/pathway size, […]_APOPTOSIS_BY_DOXORUBICIN_DN” value (Pathway_size 1781) was 0.02471, the “Observed: number of genes in pathway PILON_KLF1_TARGETS_DN” value (Pathway_size 1972) was 45 and the “Ratio observed/pathway size, PILON_KLF1_TARGETS_DN” value (Pathway_size 1972) was 0.02282. For the same compound, the “Observed: number of genes in pathway CYTOPLASM” value (Pathway_size 2130) was 50, the “Ratio observed/pathway size, CYTOPLASM” value (Pathway_size 2130) was 0.02347 and the “Observed: number of genes in pathway GGGCGGR_V$SP1_Q6” value (Pathway_size 2939) was 53. For the same compound, the “Ratio observed/pathway size, GGGCGGR_V$SP1_Q6” value (Pathway_size 2939) was 0.01803.

From US20140357512A1, “HISTONE DEACETYLASE (HDAC) BIOMARKERS IN MULTIPLE MYELOMA” (priority 2013, published 2014)
